Measurements as given in US8188086B2, “Specific salt, anhydrous and crystalline form of a dihydropteridione derivative” (Boehringer Ingelheim International GmbH, priority 2006, dated 2012).
Each block holds one compound with its values, some of them ahead of it.

Assays:
Format in all cases: physicochemical
[1] = physchem
Procedure: This hydrated form of the trihydrochloride salt of the compound N-[trans-4-[4-(cyclopropylmethyl)-1-piperazinyl]cyclohexyl]-4-[[(7R)-7-ethyl-5,6,7,8-tetrahydro-5-methyl-8-(1-methylethyl)-6-oxo-2-pteridinyl]amino]-3-methoxy-benzamide of formula (I) is highly soluble (>10 mg/ml) in propylenglycol, glycofurol, Cremophor RH40 (30% aqueous solution), Poloxamer 188 (20% aqueous solution), Solutol HS 15 (20% aqueous solution) as well as HP-β-cyclodextrin (20%-, 10%-, 5%-aqueous solutions). • Solid state properties of an hydrated form of the trihydrochloride salt of N-[trans-4-[4-(cyclopropylmethyl)-1-piperazinyl]cyclohexyl]-4-[[(7R)-7-ethyl-5,6,7,8-tetrahydro-5-methyl-8-(1-methylethyl)-6-oxo-2-pteridinyl]amino]-3-methoxy-benzamide. • Appearance

[2] = Solubility in aqueous media
[3] = Solid state stability under harsh stress conditions
From the text: No significant decomposition or impurities (Σ<2.4%) can be observed under the applied stress conditions.

[4] = Stability of hydrate / anhydrous form (humidity, ambient conditions, heating)
From the text: Under standard conditions the crystalline trihydrochloride salt form of N-[trans-4-[4-(cyclopropylmethyl)-1-piperazinyl]cyclohexyl]-4-[[(7R)-7-ethyl-5,6,7,8-tetrahydro-5-methyl-8-(1-methylethyl)-6-oxo-2-pteridinyl]amino]-3-methoxy-benzamide according to the invention is present in the form of an hydrate and is obtainable after drying with a changing stoichiometry (1-3 water equivalents). The hydrate with a stoichiometry close to a trihydrate seems to be the stable hydrated form under ambient conditions and can be obtained after conditioning of the dried material. The crystal water is tightly bound.
At about 260° C. another strong endothermic peak can be observed in the DSC-diagram, indicating melting of the dehydrated form. The onset of this melting event is at about 245° C. Melting occurs, however, under decomposition, indicated by the accompanied weight loss upon melting. When performing a TG-IR coupling experiment, it can be shown that hydrochloric acid is released upon decomposition. The respective anhydrous form, obtained by heating a sample up to 140° C. is not stable.

solubility [1]: > 10000 µg/mL
solubility ([1]; aqueous with cosolvent or surfactant or cyclodextrin): > 10000 µg/mL
solubility ([1]; organic solvent or mixture): > 10000 µg/mL
solubility ([2]; pH 2.2, aqueous buffer): > 10000 µg/mL
solubility ([2]; pH 3, aqueous buffer): 6200 µg/mL
solubility ([2]; pH 4, aqueous buffer): 7200 µg/mL
solubility ([2]; pH 5, aqueous buffer): 7200 µg/mL
solubility ([2]; pH 6, aqueous buffer): 7100 µg/mL
solubility ([2]; pH 7.4, aqueous buffer): 7800 µg/mL
solubility ([2]; simulated gastric fluid): > 10000 µg/mL
solubility ([2]; water): > 10000 µg/mL
decomposition or impurities (Σ) ([3]; 24 hours at 105° C., 72 hours at 70° C. and >90% rel. humid., or 24 hours in a Xenotester (λ=300-800 nm, 250 W·m^−2)): < 2.4%
stability in the solid state ([3]; harsh stress conditions (105° C. 24 h; 70° C./>90% rel. humid. 72 h; Xenotester 24 h)): very stable in the solid state
SMILES: CC[C@@H]1C(=O)N(C)c2cnc(Nc3ccc(C(=O)N[C@H]4CC[C@H](N5CCN(CC6CC6)CC5)CC4)cc3OC)nc2N1C(C)C.Cl [N-[trans-4-[4-(cyclopropylmethyl)-1-piperazinyl]cyclohexyl]-4-[[(7R)-7-ethyl-5,6,7,8-tetrahydro-5-methyl-8-(1-methylethyl)-6-oxo-2-pteridinyl]amino]-3-methoxy-benzamide]
solubility in physiologically acceptable solvents [2]: readily soluble in physiologically acceptable solvents
pH dependent solubility profile in aqueous media ([2]; conclusion from Table I): high solubility in acidic and neutral media and strongly reduced solubility in basic media
stability under ambient conditions compared to the anhydrous form ([4]; ambient conditions): advantage of stability under ambient conditions
weight loss on lowering the humidity ([4]; humidity down to 10% r.h.): does not result in a significant weight loss

stability of the anhydrous form ([4]; obtained by heating a sample up to 140° C.): not stable
SMILES: CC[C@@H]1C(=O)N(C)c2cnc(Nc3ccc(C(=O)N[C@H]4CC[C@H](N5CCN(CC6CC6)CC5)CC4)cc3OC)nc2N1C(C)C.Cl [anhydrous form, N-[trans-4-[4-(cyclopropylmethyl)-1-piperazinyl]cyclohexyl]-4-[[(7R)-7-ethyl-5,6,7,8-tetrahydro-5-methyl-8-(1-methylethyl)-6-oxo-2-pteridinyl]amino]-3-methoxy-benzamide]

solubility in water compared to the free base [2]: much more soluble than the free base
SMILES: CC[C@@H]1C(=O)N(C)c2cnc(Nc3ccc(C(=O)N[C@H]4CC[C@H](N5CCN(CC6CC6)CC5)CC4)cc3OC)nc2N1C(C)C.Cl [trihydrochloride salt, N-[trans-4-[4-(cyclopropylmethyl)-1-piperazinyl]cyclohexyl]-4-[[(7R)-7-ethyl-5,6,7,8-tetrahydro-5-methyl-8-(1-methylethyl)-6-oxo-2-pteridinyl]amino]-3-methoxy-benzamide]
